Like-named read-outs stand apart in the source and are kept apart here.
Assays:
GPR139 = biological target: T1, GPR139 (Homo sapiens, UniProt Q6DWJ6); assay: GPR139 Agonist titration / agonist counterscreen assay (calcium detection, HEK-GPR139 cells); assay type: cell-based; parameters: expressed in transfected cells; host or cells: HEK Aequorin cells, Maxcyte transient transfection; conditions: GPR139 Agonist Activity; for Averaged Max % Response (±St. Dev.): activity relative to known control; for EC50: read-out: EC50
T1 sequence (Q6DWJ6 1-353): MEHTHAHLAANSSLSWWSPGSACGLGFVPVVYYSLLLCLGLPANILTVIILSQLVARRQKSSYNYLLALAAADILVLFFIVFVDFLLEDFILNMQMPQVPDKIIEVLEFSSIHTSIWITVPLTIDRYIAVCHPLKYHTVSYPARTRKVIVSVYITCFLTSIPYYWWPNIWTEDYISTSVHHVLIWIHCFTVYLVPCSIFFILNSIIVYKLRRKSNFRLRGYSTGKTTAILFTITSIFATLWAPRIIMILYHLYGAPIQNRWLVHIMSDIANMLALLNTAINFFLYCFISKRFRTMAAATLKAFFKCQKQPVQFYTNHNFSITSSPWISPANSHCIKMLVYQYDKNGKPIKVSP
Procedure: GPR activity was assessed using a calcium detection assay. […] Negative control samples were treated with DMSO. […] Intracellular calcium was measured using Calcium 5.

parental HEK cells = assay: HEK parental Agonist Counterscreen Assay (non-transfected cells); assay type: cell-based; conditions: for Averaged Max % Response (±St. Dev.): activity relative to known control
Text: The high control for the agonist counterscreen was Forskolin not acetylcholine.

[1] = values printed in E-notation without unit
[2] = HEK Agonist Activity section of Table 4 (parental HEK counterscreen)
[3] = Homo sapiens, HEK293, HEK Agonist Activity section of Table 4 (parental HEK counterscreen)
[4] = Homo sapiens, HEK293, HEK Agonist Activity, parental non-transfected HEK cells

| SMILES | Averaged Max % Response (±St. Dev.) (GPR139) | Lipophilic Efficiency (logD) (GPR139; based on logD) | Lipophilic Efficiency (logP) (GPR139; based on logP) | Efficiency Ligand (GPR139; ligand efficiency) | Hill Slope (GPR139; fitted dose-response curve) | EC50 (GPR139; [1]) | Lipophilic Efficiency (logD) (parental HEK cells; HEK Agonist Activity section) | Lipophilic Efficiency (logP) (parental HEK cells; HEK Agonist Activity section) | Efficiency Ligand (GPR139) | Hill Slope (GPR139) | Lipophilic Efficiency (logD) (GPR139) | Lipophilic Efficiency (logP) (GPR139) | EC50 (GPR139; HEK-GPR139 cells) | Averaged Max % Response (±St. Dev.) (parental HEK cells; HEK Agonist Activity section) | EC50 (parental HEK cells; [3]) | also measured |
| --- | --- | --- | --- | --- | --- | --- | --- | --- | --- | --- | --- | --- | --- | --- | --- | --- |
| COc1cccc(C(=O)NNC(=O)CCCOc2ccc(Cl)cc2Cl)c1 [SR-01000205482] | 120.13 ± 6.96% | 5.35 | 5.34 | 0.47 |  |  |  |  |  |  |  |  |  |  |  | Lipophilic Efficiency (logD) (parental HEK cells; HEK Agonist Activity): 1.53; Lipophilic Efficiency (logP) (parental HEK cells; HEK Agonist Activity): 1.52; Averaged Max % Response (±St. Dev.) (parental HEK cells; HEK Agonist Activity): −5.45 ± 10.43%; EC50 (parental HEK cells; HEK Agonist Activity, parental non-transfected HEK cells): > 14100 nM |
| Cc1cccnc1CNC(=O)CCC1(Cc2cccc3ccccc23)CCC(=O)N1 (stereo not shown) [SR-01000207758] | 124.78 ± 10.06% | 3.82 | 3.82 | 0.31 | 0.77 | 178 nM | 1.92 | 1.92 |  |  |  |  |  | 2.94 ± 8.83% |  | EC50 (parental HEK cells; [2]): > 14100 nM |
| Cc1cc(C)c(/C=C2/NC(=N)NC2=O)c(C)c1 [SR-01000218376] | 76.44 ± 0.80% | 3.82 | 3.82 | 0.59 | 0.92 | 60.5 nM | 1.45 | 1.45 |  |  |  |  |  | 1.93 ± 7.79% | > 14100 nM |  |
| COc1ccc(NC(=O)NCCOc2cccc3ccccc23)cc1OC [SR-01000223498] | 115.59 ± 14.29% | 4.05 | 4.05 | 0.39 | 0.81 | 33.9 nM |  |  |  |  |  |  |  |  |  | Lipophilic Efficiency (logD) (parental HEK cells; HEK Agonist Activity): 1.43; Lipophilic Efficiency (logP) (parental HEK cells; HEK Agonist Activity): 1.43; Averaged Max % Response (±St. Dev.) (parental HEK cells; HEK Agonist Activity): 15.10 ± 2.28%; EC50 (parental HEK cells; [4]): > 14100 nM |
| Cc1c(C(=O)NC(C)(C)CO)cnn1-c1ncc2c(n1)-c1ccccc1CC2 [SR-01000239973] | 105.15 ± 8.65% | 5.11 | 5.11 | 0.39 | 0.92 | 15.7 nM |  |  |  |  |  |  |  |  |  | Lipophilic Efficiency (logD) (parental HEK cells; HEK Agonist Activity): 2.16; Lipophilic Efficiency (logP) (parental HEK cells; HEK Agonist Activity): 2.16; Averaged Max % Response (±St. Dev.) (parental HEK cells; HEK Agonist Activity): −7.52 ± 3.99%; EC50 (parental HEK cells; [4]): > 14100 nM |
| CCOc1ccc(C(=O)NCCc2ccc(F)cc2)cc1OCC [SR-01000243797] | 105.74 ± 4.40% | 3.09 | 3.09 | 0.39 | 1.05 | 205 nM | 1.25 | 1.25 |  |  |  |  |  | 10.10 ± 12.81% | > 14100 nM |  |
| Cc1c(C=O)c2ccccc2n1CC(=O)NCc1ccccc1 [SR-01000269911] | 88.11 ± 5.39% |  |  |  |  |  | 2.02 | 2.02 | 0.37 | 1.69 | 3.22 | 3.22 | 898 nM | 5.27 ± 9.17% | > 14100 nM |  |

More lines, main results first:

| Averaged Max % Response (±St. Dev.) (GPR139) | Lipophilic Efficiency (logD) (GPR139; based on logD) | Lipophilic Efficiency (logP) (GPR139; based on logP) | Efficiency Ligand (GPR139; ligand efficiency) | Hill Slope (GPR139; fitted dose-response curve) | EC50 (GPR139; [1]) | Lipophilic Efficiency (logD) (parental HEK cells; HEK Agonist Activity section) | Lipophilic Efficiency (logP) (parental HEK cells; HEK Agonist Activity section) | Efficiency Ligand (GPR139) | Hill Slope (GPR139) | Lipophilic Efficiency (logD) (GPR139) | Lipophilic Efficiency (logP) (GPR139) | EC50 (GPR139; HEK-GPR139 cells) | SMILES | Averaged Max % Response (±St. Dev.) (parental HEK cells; HEK Agonist Activity section) | EC50 (parental HEK cells; [3]) | also measured |
| --- | --- | --- | --- | --- | --- | --- | --- | --- | --- | --- | --- | --- | --- | --- | --- | --- |
| 77.11 ± 5.52% |  |  |  |  |  | 2.12 | 2.12 | 0.36 | 1.22 | 3.52 | 3.52 | 554 nM | COC(=O)c1ccc(NC(=O)CNC(=O)C2CCCCC2)c(C)c1 [SR-01000246445] | 30.43 ± 4.82% | > 14100 nM |  |
| 81.40 ± 9.66% |  |  |  |  |  | 1.37 | 1.37 | 0.30 | 1.06 | 2.28 | 2.28 | 1700 nM | CCOC(=O)c1ccc(NC(=O)Cn2c(C)c(C=O)c3ccccc32)cc1 [SR-01000248261] | 19.46 ± 6.76% |  | EC50 (parental HEK cells; [2]): > 14100 nM |
| 105.03 ± 11.34% |  |  |  |  |  | 0.46 | 0.46 | 0.33 | 0.55 | 1.49 | 1.49 | 1300 nM | CCOC(=O)c1cccc(NC(=O)Cc2cccc3ccccc23)c1 [SR-01000267161] | 13.91 ± 0.63% |  | EC50 (parental HEK cells; [2]): > 14100 nM |
| 124.00 ± 20.16% | 3.11 | 3.11 | 0.44 | 0.62 | 260 nM | 1.38 | 1.38 |  |  |  |  |  | COc1ccc(CCNC(=O)Nc2ccc(C)cc2)cc1 [SR-01000271555] | 14.71 ± 4.12% | > 14100 nM |  |
| 86.25 ± 6.17% | 4.03 | 4.03 | 0.51 | 0.89 | 118 nM | 1.95 | 1.95 |  |  |  |  |  | CCOC(=O)c1ccc(CSc2nnc(N)s2)cc1 [SR-01000273754] | 2.38 ± 11.60% |  | EC50 (parental HEK cells; [2]): > 14100 nM |
| 97.36 ± 11.63% | 4.40 | 4.36 | 0.38 | 0.75 | 23.9 nM |  |  |  |  |  |  |  | COc1ccc(OC)c(NC(=O)NNC(=O)C(C)Oc2ccc(Cl)cc2Cl)c1 (stereo not shown) [SR-01000276878] |  |  | Lipophilic Efficiency (logD) (parental HEK cells; HEK Agonist Activity): 1.62; Lipophilic Efficiency (logP) (parental HEK cells; HEK Agonist Activity): 1.58; Averaged Max % Response (±St. Dev.) (parental HEK cells; HEK Agonist Activity): 6.40 ± 8.50%; EC50 (parental HEK cells; [4]): > 14100 nM |
| 93.18 ± 13.55% |  |  |  |  |  | 1.40 | 1.38 | 0.33 | 1.11 | 2.85 | 2.82 | 508 nM | COc1ccc(C)cc1NC(=O)NNC(=O)C(C)Oc1ccc(F)cc1Cl (stereo not shown) [SR-01000277633] | −5.71 ± 6.76% | > 14100 nM |  |
| 83.43 ± 6.82% |  |  |  |  |  | 1.27 | 1.27 | 0.33 | 0.56 | 2.70 | 2.70 | 516 nM | O=C(CNc1nnc(CCCOc2ccc(Cl)cc2Cl)o1)Nc1nccs1 [SR-01000280669] | −0.76 ± 4.25% | > 14100 nM |  |
